Biological target: T1, mGluR5 (Rattus norvegicus, UniProt P31424)
T1 construct: The procedure allows the expression of the mGluR5 receptor by astrocytes; endogenous in cells; host or cells: secondary astrocyte cultures from cortices of Sprague-Dawley E18 embryos, cultured with EGF
Experiment: Inhibition of glutamate induced calcium mobilization in astrocytes expressing mGluR5 (Fluo-4, Fluorometric Imaging Plate reader)
Type: cell-based
Details: final glutamate 10 mM (FIG. 1 legend: 10 μM), mean of 3 experiments
Method: Cell cultures: Primary glial cultures were prepared from cortices of Sprague-Dawley 18 days old embryos. The cortices were dissected and then dissociated by trituration. The resulting cell homogenate was plated onto poly-D-lysine precoated T175 flasks (BIOCOAT, commercially available from Becton Dickinson and Company Inc. of Franklin Lakes, N.J.) in Dulbecco's Modified Eagle's Medium (“DMEM,” pH 7.4), buffered with 25 mM HEPES, and supplemented with 15% fetal calf serum (“FCS,” commercially available from Hyclone Laboratories Inc. of Omaha, Nebr.), and incubated at 37° C. and 5% CO2. After 24 hours, FCS supplementation was reduced to 10%. […]
Assay Protocol: After 3-5 days incubation with EGF, the astrocytes were washed with 127 mM NaCl, 5 mM KCl, 2 mM MgCl2, […] NaH2PO4, 2 mM CaCl2, 5 mM NaHCO3, 8 mM HEPES, 10 mM Glucose at pH 7.4 (“Assay Buffer”) and loaded with the dye Fluo-4 (commercially available from Molecular Probes Inc. of Eugene, Oreg.) using 0.1 mL of Assay Buffer containing Fluo-4 ([…]). […] The plates containing the astrocytes were then transferred to a Fluorometric Imaging Plate reader (commercially available from Molecular Devices Corporation of Sunnyvale, Calif.) for the assessment of calcium mobilization flux in the presence of glutamate and in the presence or absence of antagonist. […] In each experiment each data point was determined two times.

T1 sequence (P31424 21-1203): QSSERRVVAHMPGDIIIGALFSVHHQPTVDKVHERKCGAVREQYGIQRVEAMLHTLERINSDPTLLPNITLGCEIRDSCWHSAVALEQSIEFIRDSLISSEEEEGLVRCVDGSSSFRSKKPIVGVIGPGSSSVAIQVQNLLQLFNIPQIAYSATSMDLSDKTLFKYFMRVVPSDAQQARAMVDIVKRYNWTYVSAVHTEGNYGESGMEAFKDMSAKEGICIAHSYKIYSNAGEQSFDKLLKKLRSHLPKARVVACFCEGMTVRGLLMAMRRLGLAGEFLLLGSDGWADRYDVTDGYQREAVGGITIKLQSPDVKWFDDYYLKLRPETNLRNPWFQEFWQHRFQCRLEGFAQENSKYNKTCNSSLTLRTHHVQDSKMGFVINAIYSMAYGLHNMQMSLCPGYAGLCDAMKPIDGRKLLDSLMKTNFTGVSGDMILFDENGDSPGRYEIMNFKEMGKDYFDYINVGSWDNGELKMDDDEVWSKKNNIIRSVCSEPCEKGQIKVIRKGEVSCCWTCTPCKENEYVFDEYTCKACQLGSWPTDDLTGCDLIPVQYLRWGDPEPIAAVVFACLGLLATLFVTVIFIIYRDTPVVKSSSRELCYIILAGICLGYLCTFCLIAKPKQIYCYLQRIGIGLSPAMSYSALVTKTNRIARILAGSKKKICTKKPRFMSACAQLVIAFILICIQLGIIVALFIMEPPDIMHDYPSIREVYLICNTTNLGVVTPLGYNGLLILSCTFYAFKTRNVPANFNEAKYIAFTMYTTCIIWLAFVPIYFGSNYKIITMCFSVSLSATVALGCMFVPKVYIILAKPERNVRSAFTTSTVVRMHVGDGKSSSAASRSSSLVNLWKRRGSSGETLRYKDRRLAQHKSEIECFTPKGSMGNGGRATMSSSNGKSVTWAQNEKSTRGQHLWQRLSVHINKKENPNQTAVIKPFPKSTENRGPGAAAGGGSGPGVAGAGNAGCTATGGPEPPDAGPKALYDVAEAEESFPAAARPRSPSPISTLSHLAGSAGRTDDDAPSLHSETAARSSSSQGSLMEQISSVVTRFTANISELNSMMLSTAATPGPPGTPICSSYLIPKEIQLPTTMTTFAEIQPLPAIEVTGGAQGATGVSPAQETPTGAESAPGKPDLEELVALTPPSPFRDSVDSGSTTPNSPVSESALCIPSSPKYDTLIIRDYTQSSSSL

- IC50: 8.9 ± 4.8 nM
SMILES: O=C(C#Cc1ccccc1)N1CCN(c2ncccc2[N+](=O)[O-])CC1 [Compound AA]

— patent publication US6864261B2, “Therapeutic agents useful for treating pain” (Euro-Celtique S.A., priority 2002, dated 2005)
